Results on one molecule are retold here after US8546451B2 (priority 2005, dated 2013).

The subject of one data set is CYP2B6. Nature of the data set: CYP450 induction in vitro, CYP2B6. The format is in vitro ADME.
The subject of data set [1] is circulating androgen (primarily testosterone and dihydrotestosterone). The experiment in a line: Suppression and recovery of androgen levels in intact male monkeys. The format is in vivo, Cynomolgus monkeys. Set-up: circulating androgen levels: unit not given here. The method, then: The effect of Compound IV on suppression and recovery of testosterone levels in intact male monkeys was evaluated in conjunction with an oral pharmacokinetic study. Three treatment naïve male Cynomolgus monkeys (2 to 3 years old) were administered Compound IV at 30 mg/kg daily by oral gavage for 7 consecutive days. Blood samples were collected and divided into serum and plasma for testosterone and Compound IV quantitative measurements, respectively.

For data set [2], the target named is mineralocorticoids receptor (MR) (Rattus norvegicus (Rat), UniProt P22199). Nature of the data set: Cross-reactivity transcriptional activation assay, MR. The format is cell-based. The settings on record: agonist and antagonist modes. The text has this: Compound IV was screened for cross-reactivity against rat isoforms of glucocorticoid receptor (GR), mineralocorticoids receptor (MR), progesterone receptor (PR), androgen receptor (AR) and human isoforms of farnesoid X receptor (FXR), liver X receptor (LXR), peroxisome proliferator-activated receptors (PPAR-α and PPAR-γ), and retinoid X receptor (RXR-α) in both agonist and antagonist modes in transcriptional activation assays.
mineralocorticoids receptor (MR), sequence (P22199 whole entry, canonical isoform): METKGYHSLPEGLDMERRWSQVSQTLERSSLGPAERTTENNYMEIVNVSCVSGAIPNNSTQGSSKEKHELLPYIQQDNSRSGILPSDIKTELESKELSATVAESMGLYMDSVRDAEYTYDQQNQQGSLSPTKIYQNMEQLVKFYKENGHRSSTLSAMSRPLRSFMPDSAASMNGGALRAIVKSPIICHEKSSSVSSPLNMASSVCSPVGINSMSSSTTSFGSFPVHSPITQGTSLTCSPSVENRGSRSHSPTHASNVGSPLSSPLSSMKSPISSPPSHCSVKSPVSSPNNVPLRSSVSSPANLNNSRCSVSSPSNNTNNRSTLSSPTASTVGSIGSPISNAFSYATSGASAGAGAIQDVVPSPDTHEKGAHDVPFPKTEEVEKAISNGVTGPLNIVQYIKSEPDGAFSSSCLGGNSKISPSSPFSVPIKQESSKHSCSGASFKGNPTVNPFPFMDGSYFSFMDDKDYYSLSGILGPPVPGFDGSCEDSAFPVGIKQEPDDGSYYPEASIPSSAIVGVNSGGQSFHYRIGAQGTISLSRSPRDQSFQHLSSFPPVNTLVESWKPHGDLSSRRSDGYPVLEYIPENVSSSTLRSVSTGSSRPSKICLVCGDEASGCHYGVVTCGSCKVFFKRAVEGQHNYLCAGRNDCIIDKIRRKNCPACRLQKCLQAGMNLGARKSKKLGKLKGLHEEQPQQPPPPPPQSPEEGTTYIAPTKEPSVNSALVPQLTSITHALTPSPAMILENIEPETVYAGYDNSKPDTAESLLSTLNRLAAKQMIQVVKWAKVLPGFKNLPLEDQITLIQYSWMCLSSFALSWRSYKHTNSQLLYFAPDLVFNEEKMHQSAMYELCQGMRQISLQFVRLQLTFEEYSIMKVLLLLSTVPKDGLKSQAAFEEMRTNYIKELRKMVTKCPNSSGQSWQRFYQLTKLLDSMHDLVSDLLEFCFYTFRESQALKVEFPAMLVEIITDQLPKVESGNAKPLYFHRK

The test system of a further data set is telemetered dogs. Nature of the data set: Hemodynamic and cardiac function in telemetered dogs. The class given is in vivo. The note with it: any dose (up to 300 mg/kg).
The subject of another data set is intact and ORX rats. Nature of the data set: Prostate size, Compound IV versus DES in rats. The format is in vivo.
Data set [3] concerns isolated canine Purkinje fibers. Nature of the data set: Action potential duration in isolated canine Purkinje fibers. The note with it: 10 and 100 μM.
A further data set relates to rats. The experiment in a line: Gastrointestinal effects in rats. The class given is in vivo. The note with it: oral.
The next data set has as its target rat ER-β (Rattus norvegicus (Rat), UniProt Q62986). The experiment in a line: ER-β transactivation assay (ERE-LUC) in HEK-293 cells. The class given is cell-based. The method, then: Transactivation assays in agonist and antagonist modes were performed to identify whether the compound is an agonist, antagonist or a partial.
Sequencing was performed to determine the absence of any mutations. HEK-293 cells were plated at 100,000 cells per well of a 24 well plate in Dulbecco's Minimal Essential Media (DMEM) +5% charcoal-stripped fetal bovine serum (csFBS). […] Luciferase assays were performed 48 hrs after transfection.

rat ER-β, sequence (Q62986 whole entry): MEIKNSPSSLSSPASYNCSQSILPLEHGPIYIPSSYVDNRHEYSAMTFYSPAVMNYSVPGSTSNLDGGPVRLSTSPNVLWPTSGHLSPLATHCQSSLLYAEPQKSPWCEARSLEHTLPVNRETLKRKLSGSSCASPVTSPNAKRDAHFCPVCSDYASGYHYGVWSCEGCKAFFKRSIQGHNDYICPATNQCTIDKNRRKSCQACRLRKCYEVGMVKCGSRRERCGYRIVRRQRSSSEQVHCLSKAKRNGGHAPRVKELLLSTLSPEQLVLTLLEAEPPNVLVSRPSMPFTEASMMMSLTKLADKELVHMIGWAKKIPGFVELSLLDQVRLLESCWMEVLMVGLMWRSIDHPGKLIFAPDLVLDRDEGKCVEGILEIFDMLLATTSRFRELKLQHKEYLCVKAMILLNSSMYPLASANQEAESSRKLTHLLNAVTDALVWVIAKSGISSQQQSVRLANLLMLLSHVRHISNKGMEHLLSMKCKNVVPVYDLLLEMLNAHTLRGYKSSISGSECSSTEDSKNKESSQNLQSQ

In the case of `O=C(c1ccc(O)c(F)c1)N(c1ccc(O)cc1)c1ccc(F)cc1` [Compound IV, 3-fluoro-N-(4-fluorophenyl)-4-hydroxy-N-(4-hydroxyphenyl)benzamide], the “induction of CYP2B6” value in the data set on CYP2B6 was “does not induce”. Also, the “decrease of circulating androgen levels compared to baseline” value in data set [1] (30 mg/kg daily oral gavage for 7 days) is “up to 47%”. Besides, the circulating androgen levels in data set [1] (Day 2, 30 mg/kg daily oral gavage, mean±SEM) is on record as 997±104; in data set [1] (Day 6, 30 mg/kg daily oral gavage, mean±SEM), 852±136; in data set [1] (after 18-day drug-free recovery period) it was 1757.7±369.5. For the same molecule, in data set [2], the “agonist or antagonist activity” value is listed as “did not display any agonist or antagonist activity”. Also, the “hemodynamic or cardiac function (blood pressure, heart rate, electrocardiogram morphology or QT intervals)” value in the data set with telemetered dogs is reported as “did not affect”. The “prostate size of ORX rats” value with intact and ORX rats (ORX rats (FIG. 11B)) was “moderate increase”. Also, the “reduction of prostate size” value in the data set with intact and ORX rats (rats (FIG. 11A), compared with DES) is listed as “as effective as DES”. Also, the APD50 result in data set [3] was “decreased”. For the same molecule, the APD90 entry in data set [3] is on record as “decreased”. Also, the “gastrointestinal motility and gastric acidity” value in the data set with rats (30 mg/kg) is listed as “significant increase”. The peristalsis result in the data set on rats (30 to 300 mg/kg) was “significant increase”. In addition, the “ERβ activity in transient transfection assays” value at rat ER-β is on record as “agonist”. Also, on rat ER-β (estradiol 1 nM, concentrations up to 10 μM), the “antagonist effects on estradiol-stimulated transcriptional activation” value is reported as “no antagonist effects were observed”.
